Data as given in patent US20220340875A1, “METHODS OF CULTURING AND/OR EXPANDING STEM CELLS AND/OR LINEAGE COMMITTED PROGENITOR CELLS USING AMIDO COMPOUNDS” (IDEAYA BIOSCIENCES, INC., priority 2018, published 2022).

target: T1, hAhR (Homo sapiens, UniProt P35869); assay: AhR DRE-luciferase reporter transcriptional assay, antagonist mode (TCDD-induced); type: cell-based; conditions: HEPG2 DRE-Luc cells, 3 nM TCDD, 24 hour incubation, relative IC50
T1 construct: Stably integrated DRE-luciferase cell lines were generated by transducing the both cell lines with Cignal XRE luciferase reporter (Qiagen) lentiviral particles; endogenous in cells
T1 sequence (P35869 11-848): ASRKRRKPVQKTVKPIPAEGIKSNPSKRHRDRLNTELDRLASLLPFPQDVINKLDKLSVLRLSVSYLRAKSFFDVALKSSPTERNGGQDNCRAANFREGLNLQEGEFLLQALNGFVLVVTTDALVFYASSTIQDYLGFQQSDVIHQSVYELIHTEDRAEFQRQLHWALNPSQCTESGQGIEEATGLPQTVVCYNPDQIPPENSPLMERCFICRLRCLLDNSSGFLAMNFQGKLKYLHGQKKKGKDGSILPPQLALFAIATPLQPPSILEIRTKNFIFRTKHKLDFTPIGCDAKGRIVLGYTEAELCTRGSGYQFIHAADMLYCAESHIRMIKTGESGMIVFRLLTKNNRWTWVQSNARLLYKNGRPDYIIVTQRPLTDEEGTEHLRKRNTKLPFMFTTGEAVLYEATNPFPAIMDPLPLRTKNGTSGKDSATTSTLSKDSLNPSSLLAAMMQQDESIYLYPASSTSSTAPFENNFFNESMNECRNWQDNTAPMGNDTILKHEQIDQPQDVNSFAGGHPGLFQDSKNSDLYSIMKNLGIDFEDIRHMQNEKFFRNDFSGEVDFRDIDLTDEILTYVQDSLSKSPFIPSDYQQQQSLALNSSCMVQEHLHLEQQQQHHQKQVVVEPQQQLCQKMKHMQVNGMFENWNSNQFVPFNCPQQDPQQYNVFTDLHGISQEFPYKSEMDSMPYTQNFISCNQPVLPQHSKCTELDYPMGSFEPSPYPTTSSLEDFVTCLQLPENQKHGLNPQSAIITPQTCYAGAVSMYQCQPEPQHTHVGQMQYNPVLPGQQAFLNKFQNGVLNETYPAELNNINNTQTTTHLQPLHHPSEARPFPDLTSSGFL
Method: HEPG2 and HEPA1C1C7 cells were maintained in MEM and αMEM without nucleosides supplemented with 10% heat inactivated FBS respectively. Stably integrated DRE-luciferase cell lines were generated by transducing the both cell lines with Cignal XRE luciferase reporter (Qiagen) lentiviral particles according to the manufacturer protocol. For both cell lines stably integrated reporter cell lines were selected for the presence of 2 µg/mL puromycin. Following selection of stably integrated cell line pools, clonal cell lines were isolated by limiting dilution in 96-well plates. Transcriptional assays were performed by seeding 100 μL of cells at a density of 250,000 or 100,000 cells/mL, for HEPG2 and HEPA1C1C7 DRE-Luc cells respectively, into 96-well cell culture plates in OptiMEM supplemented with 0.5% heat inactivated FBS and allowed to attach overnight. For modulator assays, the compounds were added in a semi-log dose response using a D300e Digital Dispenser (Tecan) followed normalization with vehicle (DMSO). Immediately following compound addition 10 μL of 2,3,7,8-Tetrachlorodibenzo-p-dioxin (TCDD) was added to the cells to a final concentration of 3 nM or 0.3 nM for the HEPG2 and HEPA1C1C7 DRE-Luc cells respectively. Following 24 hour incubation the medium was removed and the cells were lysed in 25 μL of Reporter Lysis Buffer (Promega). Firefly luciferase activity was measured immediately following the addition of 50 μL Luciferase Assay Reagent (Promega). The percent maximal activity for each point was determined using the following equasion: (RLUsample-RLUvehicle−TCDD)/(RLUvehicle+TCDD RLUvehicle−TCDD)*100. The relative IC50, defined as the compound concentration required to reduce the TCDD induced response between the top and bottom plateau of each individual dose response curve by half, for each compound was determined using Prism 7 (GraphPad Software).

Row | Structure (SMILES) | IC50 [nM]
1 | Cc1cc(C(=O)Nc2ccc(-c3ncc4nc(C(F)(F)F)cc(C)c4n3)cc2F)ccn1 [Example 164, N-(2-fluoro-4-(8-methyl-6-(trifluoromethyl)pyrido[3,2-d]pyrimidin-2-yl)phenyl)-2-methylisonicotinamide] | < 200
2 | Cc1cc(-c2ncc3cc(C(F)(F)F)ccc3n2)ccc1N(C)C(=O)N(C)C [Example 129, 1,1,3-trimethyl-3-(2-methyl-4-(6-(trifluoromethyl)quinazolin-2-yl)phenyl)urea] | 200 to 500
3 | Cc1cc(-c2ncc3nc(C(F)(F)F)cc(C)c3n2)ccc1N(C)C(=O)c1ccnc(C(N)=O)c1 [Example 168, N4-methyl-N4-(2-methyl-4-(8-methyl-6-(trifluoromethyl)pyrido[3,2-d]pyrimidin-2-yl)phenyl)pyridine-2,4-dicarboxamide] | < 200
4 | Cc1cc(-c2ccc3nc(C(F)(F)F)ccc3n2)ccc1NC(=O)c1ccnn1C [Example 102, 1-methyl-N-(2-methyl-4-(6-(trifluoromethyl)-1,5-naphthyridin-2-yl)phenyl)-1H-pyrazole-5-carboxamide] | < 200
5 | Cc1c(-c2ccc3cc(C(F)(F)F)ccc3n2)ccc(NC(=O)c2ccnn2C)c1F [Example 005, N-(2-fluoro-3-methyl-4-(6-(trifluoromethyl)quinolin-2-yl)phenyl)-1-methyl-1H-pyrazole-5-carboxamide] | 1000 to 10000
6 | Cc1cc(-c2ccc3cc(F)ccc3n2)c(F)cc1NC(=O)c1ccnn1C [Example 067, N-(5-fluoro-4-(6-fluoroquinolin-2-yl)-2-methylphenyl)-1-methyl-1H-pyrazole-5-carboxamide] | 500 to 1000
7 | Cc1cc(-c2ncc3nc(C(F)(F)F)cc(C)c3n2)c(F)cc1N(C)C(=O)c1ccnn1C [Example 181, N-(5-fluoro-2-methyl-4-(8-methyl-6-(trifluoromethyl)pyrido[3,2-d]pyrimidin-2-yl)phenyl)-N,1-dimethyl-1H-pyrazole-5-carboxamide] | < 200
8 | Cc1cc(-c2ccc3cc(F)cc(C(F)(F)F)c3n2)ccc1NC(=O)c1ccnn1C [Example 058, N-(4-(6-fluoro-8-(trifluoromethyl)quinolin-2-yl)-2-methylphenyl)-1-methyl-1H-pyrazole-5-carboxamide] | 200 to 500
9 | Cc1cc(-c2ncc3nc(C(F)(F)F)cc(C)c3n2)ccc1NC(=O)c1ccnn1C [Example 147, 1-methyl-N-(2-methyl-4-(8-methyl-6-(trifluoromethyl)pyrido[3,2-d]pyrimidin-2-yl)phenyl)-1H-pyrazole-5-carboxamide] | < 200
10 | Cc1cc(-c2ncc3nc(C(F)(F)F)cc(C)c3n2)ccc1N(C)C(=O)c1cc(C(=O)O)nn1CC#N [Example 197, 1-(cyanomethyl)-5-(methyl(2-methyl-4-(8-methyl-6-(trifluoromethyl)-pyrido[3,2-d]pyrimidin-2-yl)phenyl)carbamoyl)-1H-pyrazole-3-carboxylic acid] | 1000 to 10000
11 | Cc1cc(C(=O)Nc2ccc(-c3ncc4cc(C(F)(F)F)ccc4n3)cc2C)ccn1 [Example 119, 2-methyl-N-(2-methyl-4-(6-(trifluoromethyl)quinazolin-2-yl)phenyl)isonicotinamide] | < 200
12 | Cc1cc(-c2ncc3nc(C(F)(F)F)cc(C)c3n2)ccc1N(C)C(=O)c1cc(C(N)=O)nn1CC#N [Example 198, 1-(cyanomethyl)-N5-methyl-N5-(2-methyl-4-(8-methyl-6-(trifluoro-methyl)pyrido[3,2-d]pyrimidin-2-yl)phenyl)-1H-pyrazole-3,5-dicarboxamide] | < 200
13 | Cc1cc(-c2ncc3nc(C(F)(F)F)ccc3n2)ccc1N(C)C(=O)c1ccnn1C [Example 136, N,1-dimethyl-N-(2-methyl-4-(6-(trifluoromethyl)pyrido[3,2-d]pyrimidin-2-yl)phenyl)-1H-pyrazole-5-carboxamide] | < 200

Further lines, results first:

Row | IC50 [nM] | Structure (SMILES)
14 | < 200 | Cc1cc(-c2ncc3nc(C(F)(F)F)cc(C)c3n2)ccc1N(C)C(=O)c1ccnn1CCN1CCCC1 [Example 182, N-methyl-N-(2-methyl-4-(8-methyl-6-(trifluoromethyl)pyrido[3,2-d]pyrimidin-2-yl)phenyl)-1-(2-(pyrrolidin-1-yl)ethyl)-1H-pyrazole-5-carboxamide]
15 | 200 to 500 | Cc1cc(-c2ncc3nc(C(F)(F)F)cc(C)c3n2)ccc1N(C)C(=O)c1ccnn1CC(N)=O [Example 171, 1-(2-amino-2-oxoethyl)-N-methyl-N-(2-methyl-4-(8-methyl-6-(trifluoromethyl)pyrido[3,2-d]pyrimidin-2-yl)phenyl)-1H-pyrazole-5-carboxamide]
16 | < 200 | Cc1cc(C(=O)N(C)c2ccc(-c3ncc4cc(C(F)(F)F)ccc4n3)cc2C)ccn1 [Example 120, N,2-dimethyl-N-(2-methyl-4-(6-(trifluoromethyl)quinazolin-2-yl)phenyl)isonicotinamide]
17 | < 200 | Cc1cc(-c2ncc3cc(F)cc(C)c3n2)ccc1NC(=O)c1ccnn1C [Example 109, N-(4-(6-fluoro-8-methylquinazolin-2-yl)-2-methylphenyl)-1-methyl-1H-pyrazole-5-carboxamide]
18 | 500 to 1000 | Cc1cc(-c2ccc3cc(F)ccc3n2)ccc1NC(=O)c1ccncc1 [Example 028, N-(4-(6-fluoroquinolin-2-yl)-2-methylphenyl)isonicotinamide]
19 | 500 to 1000 | Cc1cc(-c2ccc3cc(F)ccc3n2)ccc1NC(=O)c1cocn1 [Example 036, N-(4-(6-fluoroquinolin-2-yl)-2-methylphenyl)oxazole-4-carboxamide]
20 | < 200 | Cc1cc(-c2ncc3cc(C(F)(F)F)ccc3n2)ccc1N(C)C(=O)c1ncc[nH]1 [Example 132, N-methyl-N-(2-methyl-4-(6-(trifluoromethyl)quinazolin-2-yl)phenyl)-1H-imidazole-2-carboxamide]
21 | 1000 to 10000 | Cc1cc(-c2ncc3nc(C(F)(F)F)ccc3n2)c(C)cc1NC(=O)c1ccnn1C [Example 189, N-(2,5-dimethyl-4-(6-(trifluoromethyl)pyrido[3,2-d]pyrimidin-2-yl)phenyl)-1-methyl-1H-pyrazole-5-carboxamide]
22 | 200 to 500 | CC(=O)Nc1ccc(-c2ccc3cc(F)ccc3n2)cc1C [Example 040, N-(4-(6-fluoroquinolin-2-yl)-2-methylphenyl)acetamide]
23 | 1000 to 10000 | Cc1cc(-c2ccc3cc(-c4nnn[nH]4)ccc3n2)ccc1NC(=O)c1ccnn1C [Example 063, N-(4-(6-(1H-tetrazol-5-yl)quinolin-2-yl)-2-methylphenyl)-1-methyl-1H-pyrazole-5-carboxamide]
24 | 1000 to 10000 | Cc1cc(-c2ccc3c(ccn3C)n2)ccc1NC(=O)c1ccnn1C [Example 085, 1-methyl-N-(2-methyl-4-(1-methyl-1H-pyrrolo[3,2-b]pyridin-5-yl)phenyl)-1H-pyrazole-5-carboxamide]
25 | < 200 | CNC(=O)c1cc(C(=O)N(C)c2ccc(-c3ncc4nc(C(F)(F)F)cc(C)c4n3)cc2C)ccn1 [Example 169, N2,N4-dimethyl-N4-(2-methyl-4-(8-methyl-6-(trifluoromethyl)pyrido-[3,2-d]pyrimidin-2-yl)phenyl)pyridine-2,4-dicarboxamide]
26 | 200 to 500 | Cc1cc(-c2ccc3cc(F)ccc3n2)ccc1NC(=O)c1nccn1C [Example 033, N-(4-(6-fluoroquinolin-2-yl)-2-methylphenyl)-1-methyl-1H-imidazole-2-carboxamide]
27 | < 200 | Cc1cc(-c2ccc3nc(C(F)(F)F)cc(C)c3n2)ccc1NC(=O)c1ccnn1C [Example 105, 1-methyl-N-(2-methyl-4-(8-methyl-6-(trifluoromethyl)-1,5-naphthyridin-2-yl)phenyl)-1H-pyrazole-5-carboxamide]
